In publication PMC12191028, “Preparation of Nanoparticle-Immobilized Gold Surfaces for the Reversible Conjugation of Neurotensin Peptide” (Biomolecules, 2025):

Legend:
NTSR2 antibody = test: NTSR2 antibody–NTS(8–13) peptide binding affinity by microscale thermophoresis (MST); settings: Monolith NT.115 Pico, RED-NHS-labeled NTSR2 antibody 20 nM, PBS with 0.005% Tween-20, 20 min dark incubation, 16 serial dilutions from 0.5 mg/mL, free peptide in solution, n = 3, read-out: dissociation constant (Kd)
Protocol: An RED-NHS 2nd generation protein labeling kit and Monolith NT.115 premium capillaries were obtained from NanoTemper Technologies (Munich, Germany). The binding affinity of the NTSR2 antibody–NTS(8–13) peptide interaction was evaluated using microscale thermophoresis (MST) with Monolith NT.115 Pico instrument (NanoTemper Technologies, Munich, Germany). The NTSR2 antibody was labeled with the Monolith protein labeling kit and RED-NHS 2nd generation kit and used as a target molecule in PBS with 0.005% Tween-20. Experiments were conducted using the Monolith NT.115 premium capillariesat Pico-RED 80% excitation power and medium MST power with thermophoresis. For the labeled NTSR2 antibody, a concentration of 20 nM was used, whereas for the NTS(8–13) peptide, 16 serial dilutions were prepared starting from 0.5 mg/mL. Dark incubation was performed for 20 min after mixing the target and ligand molecule. Triplicate results were analyzed using the M.O. affinity analysisv.2.3 software.

[1] = target: high-affinity receptor (NTSR2); settings: binding affinity to its high-affinity receptor (NTSR2) according to the literature; ref [69]; cited from earlier work

- Kd (NTSR2 antibody): 32.9 µM
Substance: RRPYIL [NTS(8–13), fragment of the neurotensin peptide (RRPYIL)]
- Kd [1]: 0.005 to 0.007 µM
